Source: US20260250325A1, “Antiviral Polypeptide Membrane Fusion Inhibitor, and Preparation Method and Application Thereof” (priority 2025, published 2026)
Where a SMILES comes first, the peptide text is derived from it. The star is where a group is joined. Succinyl(4-O-cholesteryl) = CC(C)CCC[C@@H](C)[C@H]1CC[C@H]2[C@@H]3CC=C4C[C@@H](OC(=O)CCC(=O)*)CC[C@]4(C)[C@H]3CC[C@]12C; X1 = CC(C)CCCC(C)C1CCC2C3CC=C4CC(OC(=O)CCC(=O)*)CCC4(C)C3CCC12C

Key:
[1] = test system: hMPV B1; assay type: cell-based; conditions: Vero cells, plaque reduction
Procedure: (§1) African green monkey kidney cells (Vero) were sourced from the ATCC, with catalog number CCL-81. The cells were cultured in a DMEM culture solution in which 10% fetal bovine serum, 1% non-essential amino acids, 1% sodium pyruvate, 1% L-glutamine, 100 U/ml penicillin, and 100 μg/ml streptomycin were added.
(§2) A hMPV plaque experiment culture medium consisted of an Opti-MEM culture solution added with 1% non-essential amino acids, 100 U/mL penicillin, and 100 μg/mL streptomycin.
(§3) hMPV virus strains A2 and B1 were constructed by WuXi App Tec.
(§4) This study used a plaque reduction experiment to detect the in-vitro activity of a test sample against the hMPV virus strains A2 and B1.
(§5) The test sample and an experimental system were tested at 8 concentrations in duplicated wells. The Vero cells were digested with trypsin and then diluted to a concentration of 400,000 cells per milliliter by using a cell culture solution containing 2% serum. The diluted cells were added to a 96-well cell test board, with 100 μL per well, corresponding to 40000 cells per well. The cells were cultured overnight in a 37° C. incubator with 5% CO2.
(§6) On the second day, the test sample was diluted in an experimental culture medium at a fold ratio. The sample diluted at a fold ratio and an equal volume of virus (approximately 200 PFU per well) were well mixed and incubated at 33° C. in 5% CO2 for 1 h. Then, the culture solution in the 96-well cell test board was discarded, the sample virus mixed solution (100 μL) was added to the 96-well cell culture plate, and incubated at 37° C. in 5% CO2 for 2 hours. After 2 h, the sample virus mixed solution was discarded, 200 μL of an experiment culture medium containing the test sample with a corresponding concentration was added, and the culture solution contained 0.8% CMC and 5 μg/ml trypsin. A final concentration of DMSO in the culture solution was 0.5%. A system control antibody was directly added to the experiment culture solution containing 0.8% CMC and 5 μg/ml trypsin. A cell control (cells, without compound treatment or viral infection) and a viral control (cell infection virus, without compound treatment) were set. The cells were cultured for 1 day in the 33° C. incubator with 5% CO2.
(§7) The cells were fixed with 4% paraformaldehyde, and then permeabilization was performed with 0.5% Triton X-100. After the plate was washed with DPBS, a hMPV specific antibody (1:2000 dilution) was added and incubated at 37° C. for 1.5 h. Then, a secondary antibody (1:1000 dilution) was added and incubated at 37° C. for 1 hour. The secondary antibody was discarded, a TrueBlue solution was added, dyeing was performed for approximately 10 minutes; and the plate was washed with running water and then air-dried, and the number of spots in each well was counted by using a microplate imaging counter.
(§8) Raw data was used for analyzing the antiviral activity of the test samples. A calculation formula was shown as follows.
(§9) % inhibition rate=100−(sample value-cell control average value)/(virus control average value-cell control average value)×100
(§10) Non-linear fitting analysis was performed on the inhibition rate of the sample by using GraphPad Prism (version 10), so as to calculate an EC50 value for the sample. A fitting formula was log (inhibitor) vs. response-Variable slope (four parameters).

[2] = test system: hMPV A2; assay type: cell-based; conditions: Vero cells, plaque reduction
Procedure: as §1, §2, §3, §4, §5, §6, §7, §8, §9, §10

[3] = molecular target: T1, hPIV-N51 (139-189) (Human parainfluenza 3 virus, UniProt P06828); test: SPR affinity to hPIV-N51 coupled on CM5 chip; assay type: binding
T1 construct: hPIV-N51 (139-189)
T1 sequence (P06828 139-189): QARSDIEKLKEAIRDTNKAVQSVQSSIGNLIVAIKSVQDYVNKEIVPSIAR
Procedure: (§11) hMPV and hPIV were two viruses having a typical Class I fusion protein-F protein. An F protein precursor F0 was cracked into F1 and F2 subunits. […] When the compound flowed through a chip surface, changes in an SPR signal were monitored in real time, binding and dissociation processes were recorded, and a binding rate constant (ka) and a dissociation rate constant (kd) were further obtained through kinetic analysis, thereby calculating an equilibrium dissociation constant (KD=kd/ka).
(§12) A CM5 chip with a catalog number 29149603, an amino coupling reagent kit with a catalog number BR100050, HBS-EP+Buffer (10×), sodium acetate (pH 4.0), and a 10 mM glycine-HCl buffer (pH 2.0) were all purchased from GE Health.
(§13) CM5 chip coupling: Channels 2 and 4 of the CM5 chip were activated for 7 min by using a freshly-prepared mixture of 50 mM Hydroxy succinimide (NHS) and 200 mM 1-(3-Dimethylaminopropyl)-3-ethylcarbodiimide (EDC) according to 1:1; and then, hMPV-N46 or hPIV-N51 was diluted and dissolved with sodium acetate with 4.0 pH to a concentration of 30 μM, with a flow rate of 10 μl/min and time of 600 s. An experimental buffer was HBS-EP+buffer (1×). Finally, the chip was blocked with 1 M ethanolamine. The instrument was set to a temperature of 25° C.
(§14) Affinity detection: the buffer used in the experiment was HBS-EP+buffer (1×), and a multi-cycle dynamic mode was used. Channels 1 and 3 of the chip served as blank reference channels; polypeptides to be detected sequentially flowed through Channels 2 and 4 at concentrations of 0 μM, 0.04 µM, 0.12 µM, 0.37 μM, 1.11 µM, 3.33 µM, 10 µM, and 30 μM; the flow rate was 30 μl/min, binding was performed for 180 s, and dissociation was performed for 120 s. Finally, the chip was regenerated by injecting 10 mM glycine (pH 2.0). The instrument was set to a temperature of 25° C.

[4] = molecular target: T2, hMPV-N46 (127-172) (Human metapneumovirus, UniProt Q6WB98); test: SPR affinity to hMPV-N46 coupled on CM5 chip; assay type: binding
T2 construct: hMPV-N46 (127-172)
T2 sequence (Q6WB98 127-172): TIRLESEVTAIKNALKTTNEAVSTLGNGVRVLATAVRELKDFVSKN
Procedure: as §11, §12, §13, §14

## CC[C@H](C)[C@H](NC(=O)[C@H](CCCCN)NC(=O)[C@H](CCCCN)NC(=O)[C@H](CC(C)C)NC(=O)[C@H](CO)NC(=O)[C@H](CCC(=O)O)NC(=O)[C@H](CCC(=O)O)NC(=O)[C@@H](NC(=O)[C@H](CCCCN)NC(=O)[C@H](CCCCN)NC(=O)[C@H](CC(N)=O)NC(=O)[C@@H](NC(=O)[C@H](CCC(=O)O)NC(=O)[C@H](CCC(=O)O)NC(=O)[C@@H](NC(=O)[C@H](CCCCN)NC(=O)[C@H](CCCCN)NC(=O)[C@H](CC(=O)O)NC(=O)[C@H](Cc1ccccc1)NC(=O)[C@H](CCC(=O)O)NC(=O)[C@H](CC(=O)O)NC(=O)[C@H](CO)NC(C)=O)[C@@H](C)CC)C(C)C)[C@@H](C)CC)C(=O)N[C@@H](CCC(=O)O)C(=O)N[C@@H](CCC(=O)O)C(=O)N[C@@H](CO)C(=O)N[C@@H](CC(=O)O)C(=O)N[C@@H](CCCCN)C(=O)N[C@@H](CCCCN)C(=O)N[C@@H](CC(C)C)C(=O)N[C@@H](CCC(=O)O)C(=O)N[C@@H](C)C(=O)N[C@@H](C)C(=O)N[C@@H](C)C(=O)N[C@@H](CCCCN)C(=O)N[C@@H](CCCCNC(=O)CCC(=O)O[C@H]1CC[C@@]2(C)C(=CC[C@H]3[C@@H]4CC[C@H]([C@H](C)CCCC(C)C)[C@@]4(C)CC[C@@H]32)C1)C(N)=O [Compound 16] (Ac-SDEFDKKIEEVNKKIEESLKKIEESDKKLEAAAKK(Succinyl(4-O-cholesteryl))-NH2)
[1]
  EC50: 4.5 nM
[2]
  EC50: 7.35 nM
[3]
  Kd: 5400 nM
[4]
  Kd: 3060 nM

## Ac-FDEEISQVNEKINQSLAFIRKSDELLHNVNAGKSTTEAAAKK(Succinyl(4-O-cholesteryl))-NH2 [Compound 26]
[1]
  EC50: 2.85 nM
[2]
  EC50: 103 nM
[3]
  Kd: 2580 nM
[4]
  Kd: 2150 nM

## CC[C@H](C)[C@H](NC(=O)[C@H](CO)NC(=O)[C@H](C)NC(=O)[C@H](CC(=O)O)NC(=O)[C@H](Cc1ccccc1)NC(=O)[C@H](CCC(=O)O)NC(=O)[C@H](CC(=O)O)NC(C)=O)C(=O)N[C@@H](CO)C(=O)N[C@@H](CCC(N)=O)C(=O)N[C@H](C(=O)N[C@@H](CC(N)=O)C(=O)N[C@@H](CCC(=O)O)C(=O)N[C@@H](CCCCN)C(=O)N[C@H](C(=O)N[C@@H](CC(N)=O)C(=O)N[C@@H](CCC(N)=O)C(=O)N[C@@H](CO)C(=O)N[C@@H](CC(C)C)C(=O)N[C@@H](CCC(=O)O)C(=O)N[C@@H](CCC(=O)O)C(=O)N[C@H](C(=O)N[C@@H](CCCNC(=N)N)C(=O)N[C@@H](CCCCN)C(=O)N[C@@H](CO)C(=O)N[C@@H](CC(=O)O)C(=O)N[C@@H](CCC(=O)O)C(=O)N[C@@H](CC(C)C)C(=O)N[C@@H](CC(C)C)C(=O)N[C@@H](Cc1c[nH]cn1)C(=O)N[C@@H](CC(N)=O)C(=O)N[C@@H](CCC(=O)O)C(=O)N[C@@H](C)C(=O)N[C@@H](C)C(=O)N[C@@H](C)C(=O)N[C@@H](CCCCN)C(=O)N[C@@H](CCCCNC(=O)CCC(=O)O[C@H]1CC[C@@]2(C)C(=CC[C@H]3[C@@H]4CC[C@H]([C@H](C)CCCC(C)C)[C@@]4(C)CC[C@@H]32)C1)C(N)=O)[C@@H](C)CC)[C@@H](C)CC)C(C)C [Compound 28] (Ac-DEFDASISQVNEKINQSLEEIRKSDELLHNEAAAKK(Succinyl(4-O-cholesteryl))-NH2)
[1]
  EC50: 13.8 nM
[2]
  EC50: 58.6 nM
[3]
  Kd: 983000 nM
[4]
  Kd: 209 nM

## CC[C@H](C)[C@H](NC(=O)[C@H](CCCCN)NC(=O)[C@H](CCCCN)NC(=O)[C@H](CC(C)C)NC(=O)[C@H](CO)NC(=O)[C@H](CCC(=O)O)NC(=O)[C@H](CCC(=O)O)NC(=O)[C@@H](NC(=O)[C@H](CCCCN)NC(=O)[C@H](CCCCN)NC(=O)[C@H](CC(N)=O)NC(=O)[C@@H](NC(=O)[C@H](CCC(=O)O)NC(=O)[C@H](CCC(=O)O)NC(=O)[C@@H](NC(=O)[C@H](CCCCN)NC(=O)[C@H](CCCCN)NC(=O)[C@H](CC(=O)O)NC(=O)[C@H](Cc1ccccc1)NC(=O)[C@H](CCC(=O)O)NC(=O)[C@H](CC(=O)O)NC(=O)[C@H](Cc1c[nH]c2ccccc12)NC(C)=O)[C@@H](C)CC)C(C)C)[C@@H](C)CC)C(=O)N[C@@H](CCC(=O)O)C(=O)N[C@@H](CCC(=O)O)C(=O)N[C@@H](CO)C(=O)N[C@@H](CC(=O)O)C(=O)N[C@@H](CCCCN)C(=O)N[C@@H](CCCCN)C(=O)N[C@@H](CC(C)C)C(=O)N[C@@H](Cc1c[nH]cn1)C(=O)N[C@@H](CC(N)=O)C(=O)N[C@H](C(=O)N[C@@H](CCC(=O)O)C(=O)N[C@@H](C)C(=O)N[C@@H](C)C(=O)N[C@@H](C)C(=O)N[C@@H](CCCCN)C(=O)N[C@@H](CCCCNC(=O)CCC(=O)O[C@H]1CC[C@@]2(C)C(=CC[C@H]3[C@@H]4CC[C@H]([C@H](C)CCCC(C)C)[C@@]4(C)CC[C@@H]32)C1)C(N)=O)C(C)C [Compound 44] (Ac-WDEFDKKIEEVNKKIEESLKKIEESDKKLHNVEAAAKK(Succinyl(4-O-cholesteryl))-NH2)
[1]
  EC50: 6.6 nM
[2]
  EC50: 14.6 nM
[3]
  Kd: 6860 nM
[4]
  Kd: 149 nM

## Ac-SLEQVNEKINQSLAFIRKSDEINQSDEEVNKSDELLEAAAKK-NH2 [Compound 50]
[1]
  EC50: 5.95 nM
[2]
  EC50: 13.3 nM

## CC[C@H](C)[C@H](NC(=O)[C@H](CCCCN)NC(=O)[C@H](CCCCN)NC(=O)[C@H](CC(C)C)NC(=O)[C@H](CO)NC(=O)[C@H](CCC(=O)O)NC(=O)[C@H](CCC(=O)O)NC(=O)[C@@H](NC(=O)[C@H](CCCCN)NC(=O)[C@H](CCCCN)NC(=O)[C@H](CC(N)=O)NC(=O)[C@@H](NC(=O)[C@H](CCC(=O)O)NC(=O)[C@H](CCC(=O)O)NC(=O)[C@@H](NC(=O)[C@H](CCCCN)NC(=O)[C@H](CCCCN)NC(=O)[C@H](CC(=O)O)NC(=O)[C@H](Cc1ccccc1)NC(=O)[C@H](CCC(=O)O)NC(=O)[C@H](CC(=O)O)NC(C)=O)[C@@H](C)CC)C(C)C)[C@@H](C)CC)C(=O)N[C@@H](CCC(=O)O)C(=O)N[C@@H](CCC(=O)O)C(=O)N[C@@H](CO)C(=O)N[C@@H](CC(=O)O)C(=O)N[C@@H](CCCCN)C(=O)N[C@@H](CCCCN)C(=O)N[C@@H](CC(C)C)C(=O)N[C@@H](CCC(=O)O)C(=O)N[C@@H](CCC(=O)O)C(=O)N[C@H](C(=O)N[C@@H](CCC(=O)O)C(=O)N[C@@H](C)C(=O)N[C@@H](C)C(=O)N[C@@H](C)C(=O)N[C@@H](CCCCN)C(=O)N[C@@H](CCCCNC(=O)CCC(=O)OC1CCC2(C)C(=CCC3C2CCC2(C)C(C(C)CCCC(C)C)CCC32)C1)C(N)=O)C(C)C (some centres unmarked) [Compound 21] (Ac-DEFDKKIEEVNKKIEESLKKIEESDKKLEEVEAAAKK(X1)-NH2)
[1]
  EC50: 4.92 nM
[2]
  EC50: 11.2 nM
